Source: patent publication US20110009616A1, “AGENT FOR PREVENTING ARTERIOSCLEROSIS” (priority 2006, published 2011)

Experiments:
[1] = target: T1, bLOX-1 (Bos taurus, UniProt P79391); test: Fluorescently labeled oxidized LDL uptake into CHO cells stably expressing bLOX-1 (Examples 6, 7); assay type: cell-based, bovine; set-up: By a positive screening using a full-length bLOX cDNA; expressed in transfected cells; details: Example 7; FIG. 6
Target sequence in this assay (P79391 whole entry): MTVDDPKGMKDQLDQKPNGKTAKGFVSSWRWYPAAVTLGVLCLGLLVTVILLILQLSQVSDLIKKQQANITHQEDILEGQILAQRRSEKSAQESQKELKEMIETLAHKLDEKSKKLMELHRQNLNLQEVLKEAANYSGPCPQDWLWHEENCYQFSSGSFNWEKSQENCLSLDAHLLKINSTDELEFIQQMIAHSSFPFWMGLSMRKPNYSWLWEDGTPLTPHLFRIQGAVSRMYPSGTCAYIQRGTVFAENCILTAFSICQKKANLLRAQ

[2] = target: T1, bLOX-1; test: Plate assay: binding of oxidized LDL to recombinant bLOX-1 (Test Example 1); set-up: 6xHis (N); made in house; host or cells: E. coli; species or system bovine; details: final concentration of 16 μM, FIG. 1; for binding rate of oxidized LDL to bLOX-1 (inhibition of binding): control without compounds = 100
Method: A LOX-1 antagonist activity of the agent for preventing arteriosclerosis obtained in the above-mentioned Example was evaluated on a LOX-1 binding inhibition rate to oxidized LDL using a recombinant LOX-1 protein obtained from E. coli.
As for the recombinant LOX-1, in cDNA of LOX-1 derived from bovine (bLOX-1) or derived from human (hLOX-1), a sequence to the C-terminal removing a transmembrane region was inserted into a pQE30 vector having a 6-histidine tag sequence (6×His) at the N-terminal (manufactured by Qiagen) so as to have a sequence aligned to a translation frame. The vector was transformed into E. coli able to be controlled by T5 promoter and the expression of each LOX-1 was induced under induction of 1 m M of isopropyl-1-thio-β-D-[…] (IPTG). After the induction of each expression at 37° C. for 3 hours, since the recombinant LOX-1 was obtained from an insoluble fraction, E. coli was lysed in a buffer containing 6 M guanidine hydrochloride and purified by affinity column chromatography using a Ni-NTA agarose column (manufactured by Qiagen) as the marker of 6×His (solvent: phosphoric acid buffer). Furthermore, each of the elution fractions containing LOX-1 was dialyzed in a 20 mM tris buffer (pH 9.0) and a 8M urea containing buffer, applied to a HiTrap Q column, an anion exchanger, (manufactured by Amersham), and eluted and purified with a linear concentration gradient of NaCl. Each of the fractions containing LOX-1 obtained above was reduced in a buffer containing excess amount of DTT (dithiothreitol), and then intramolecular S-S bonds were unwinded by a redox system using a mixture of oxidized […] low molecular thiol compounds. Each LOX-1 obtained above has a binding ability to the oxidized LDL and will be used as a LOX-1 standard for the following plate assays.
The plate assay was carried out using MaxiSorp Immuno Plate (96-well type, manufactured by NUNC). Each LOX-1 purified above was prepared with a PBS buffer so as to be 5 μg/mL, and 100 μL of the solution was applied to each well. After leaving at 4° C. overnight, each well was washed with 400 μL of a PBS buffer twice (400 μL×2) and 300 μL of a PBS buffer containing 25% BlockAce (manufactured by Dainippon Sumitomo Pharma Co., Ltd.) was applied to each well. After leaving at 4° C. overnight, each well was washed with 400 μL of a PBS buffer twice (400 μL×2), a solution of ethyl pheophorbide a was prepared with a PBS buffer containing 1% bovine serum albumin (BSA) so as to have an appropriate dilution rate, and 100 μL of the solution was applied to each well. After leaving at 4° C. overnight, each well was washed with 400 μL of a PBS buffer three times (400 μL×3), a solution of oxidized LDL was prepared with a PBS buffer so as to be 5 μg/mL, and 100 μL of the solution was applied to eachr well. After leaving at 4° C. overnight, each well was washed with 400 μL of a PBS buffer three times (400 μL×3), a horseradish peroxidase-conjugated anti-apolipoprotein B antibody (manufactured by The Binding Site) was diluted 1000 times with a PBS buffer, and 100 μL of the solution was applied to each well. After leaving at room temperature for 2 hours, each well was washed with 400 μL of a PBS buffer five times (400 μL×5), and 100 μL of a 3,3′,5,5′-tetramethylbenzidine (TMB) peroxidase-enzyme immunoassay (EIA)-substrate-kit reagent (manufactured by Bio-Rad) was applied to each well. After an appropriate reaction period, 50 μL of 2M H2SO4 was applied to each well to stop the reaction. Finally, a LOX-1 antagonist activity (an oxidized LDL binding inhibition rate to LOX-1) was determined by detection at 450 nm.
Target sequence in this assay (P79391 57-270 limits assumed): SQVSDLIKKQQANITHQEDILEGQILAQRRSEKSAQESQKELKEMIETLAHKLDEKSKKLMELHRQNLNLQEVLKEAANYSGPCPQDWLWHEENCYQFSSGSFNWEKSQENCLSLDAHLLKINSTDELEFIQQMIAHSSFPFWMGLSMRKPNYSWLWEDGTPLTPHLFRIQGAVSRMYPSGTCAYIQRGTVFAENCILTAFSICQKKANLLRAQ

[3] = tested on: living cells (mitochondria activity); test: Cytotoxicity, number of living cells by Cell counting Kit-8 (WST-8) (Example 5); assay type: cell-based; details: 7 hours with compound; concentrations where the inhibitory activities were effective; results not shown
Method: In order to examine cytotoxicities of the compounds in Examples 1 to 4 and Comparative Examples 1 to 9, the number of living cells was measured as follows. As a method for measuring the number of living cells, a MTT method using a reduction of MTT (3-(4,5-dimethyl-2-thiazolyl)-2,5-diphenyltetrazolium bromide) to formazan (formed as a poorly soluble precipitate) by dehydrogenase in mitochondria, and the like, are generally used. Thus, “Cell counting Kit-8” (manufactured by Dojindo Laboratories, WST-8 which forms a water soluble formazan is used instead of MTT), a modified method of the MTT method, was used for the measurement of the number of living cells. Specifically, 100 μL of cells were seeded into inner 60 wells of a 96-well plate (manufactured by Falcon) so as to be 3.0×10^4 cells/mL, respectively (in order to avoid temperature variation, 100 μL of a culture medium was only added into the outer 36 wells). After cultivating for 2 days (37° C.), 50 μL of the culture supernatant was removed and 50 μL of a new culture medium containing each compound with an appropriate dilution rate was added. After adding the new culture medium containing each compound, the cells were cultivated for 7 hours. After 7 hours, each well was washed with 100 μL of the culture medium without the compounds three times, and then 3 μL of a culture medium containing “WST-8”, a “Cell counting Kit-8” solution, was added to each well. After cultivating for 1 hour, absorbance at 450 nm of each culture medium was measured and converted to the number of living cells. It is considered that three washing operations in the process omit the effect of the compounds in the external solution on the absorbance.

## C[C@@H]1[C@H](O)[C@@H](C)/C=C/C=C/CC/C=C/C=C/C=C/C=C/C(O[C@H]2O[C@H](C)[C@@H](O)[C@H](N)[C@@H]2O)CC2O[C@](O)(CC(O)C(O)CCC(O)CC(O)CC(O)CC(=O)O[C@H]1C)CC(O)C2C(=O)O (stereo partly drawn) [nystatin, Nystatin]
[1]
  inhibition of DiI-OxLDL uptake in CHO cells expressing bLOX, compared with inhibition of CTB uptake: nearly equal to that of CTB

## uroporphyrin III
[2]
  binding rate of oxidized LDL to bLOX-1 (inhibition of binding): inhibit the binding significantly
[3]
  cytotoxicity (number of living cells): did not show the cytotoxicity

## hematoporphyrin
[2]
  inhibition activity on binding of oxidized LDL to bLOX-1 (ranking among actives): high inhibition activities
  binding rate of oxidized LDL to bLOX-1 (inhibition of binding): inhibit the binding significantly
[3]
  cytotoxicity (number of living cells): did not show the cytotoxicity

## C=CC1=C(C)c2cc3[nH]c(c4c5nc(cc6[nH]c(cc1n2)c(C)c6CC)C(C)=C5C(=O)C4C(=O)OC)C(CCC(=O)OCC)C3C (stereo not drawn) [ethyl pheophorbide a]
[2]
  inhibition activity on binding of oxidized LDL to bLOX-1 (ranking among actives): high inhibition activities
  binding rate of oxidized LDL to bLOX-1 (inhibition of binding): inhibit the binding significantly
[3]
  cytotoxicity (number of living cells): did not show the cytotoxicity
